# US20140107109A1, “AMINO-DIHYDROTHIAZINE AND AMINO-DIOXIDO DIHYDROTHIAZINE COMPOUNDS AS BETA-SECRETASE ANTAGONISTS AND METHODS OF USE” (Amgen Inc., priority 2012, published 2014)
# How the values were obtained:
# [1] = biological target: Beta Secretase enzyme (BACE1) (Homo sapiens, UniProt P56817); assay: In vitro enzymatic BACE FRET assay; type: biochemical; conditions: average IC50, enzyme assay; read-out: BACE1 FRET assay IC50
# How it was run: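 BACE1 cleavage of a 50 nM fluorophore/quencher peptide FRET substrate ran for one hour in 0.05 M acetate pH 4.2, 10% DMSO, 100 uM genapol. Tris buffer raised pH to neutrality to stop the reaction before fluorescence was read (excitation 488 nm, […]).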
# [2] = system: Aβ40 in conditioned medium of cells stably expressing Amyloid Precursor Protein (APP); assay: In vitro BACE cell-based assay (HEK cell assay), Aβ40 sandwich ELISA; conditions: Homo sapiens, HEK293; average IC50, HEK cell assay
# How it was run: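 APP-stably expressing cells (40K/well, grown 24 h in DMEM/10% FBS) were treated 24 h with compounds in 10-point dose response starting at 100 μM or 10 μM, 0.1% DMSO final. Secreted Aβ40 was measured by sandwich ELISA (pAb40 capture, biotinylated 6E10 detection, europium time-resolved fluorescence); IC50 from percent inhibition.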
# Cathepsin D (Cat D) = biological target: T1, Cathepsin D (Cat D) (Homo sapiens, UniProt P07339); assay: In vitro enzymatic Cathepsin D (Cat D) FRET assay; type: biochemical; conditions: read-out: CatD IC50
# T1 construct: Recombinant Cat D was expressed in CHO cells; made in house; host or cells: CHO cells
# How it was run: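 Recombinant Cat D expressed in CHO cells, used at 9 nM and pre-incubated one hour with serially diluted inhibitor in DMSO. Peptide substrate carries a fluorophore and quencher flanking the cleavage site; reaction stopped with Tris buffer raising pH to neutrality, then fluorescence read.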
# Beta Secretase enzyme (BACE1), sequence (P56817 46-501): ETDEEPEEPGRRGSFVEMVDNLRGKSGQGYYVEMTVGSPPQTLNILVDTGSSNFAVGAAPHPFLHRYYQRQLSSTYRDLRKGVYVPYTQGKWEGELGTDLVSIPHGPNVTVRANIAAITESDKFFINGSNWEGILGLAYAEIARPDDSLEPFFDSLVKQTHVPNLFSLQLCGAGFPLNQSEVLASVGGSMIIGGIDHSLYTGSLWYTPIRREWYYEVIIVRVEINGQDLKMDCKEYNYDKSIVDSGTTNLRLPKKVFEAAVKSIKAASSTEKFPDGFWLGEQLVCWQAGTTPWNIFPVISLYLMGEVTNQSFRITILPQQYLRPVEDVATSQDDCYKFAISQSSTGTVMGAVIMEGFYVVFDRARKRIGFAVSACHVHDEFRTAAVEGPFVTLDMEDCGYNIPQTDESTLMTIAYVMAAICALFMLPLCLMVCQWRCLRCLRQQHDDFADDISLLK
# T1 sequence (P07339 65-412, species assumed): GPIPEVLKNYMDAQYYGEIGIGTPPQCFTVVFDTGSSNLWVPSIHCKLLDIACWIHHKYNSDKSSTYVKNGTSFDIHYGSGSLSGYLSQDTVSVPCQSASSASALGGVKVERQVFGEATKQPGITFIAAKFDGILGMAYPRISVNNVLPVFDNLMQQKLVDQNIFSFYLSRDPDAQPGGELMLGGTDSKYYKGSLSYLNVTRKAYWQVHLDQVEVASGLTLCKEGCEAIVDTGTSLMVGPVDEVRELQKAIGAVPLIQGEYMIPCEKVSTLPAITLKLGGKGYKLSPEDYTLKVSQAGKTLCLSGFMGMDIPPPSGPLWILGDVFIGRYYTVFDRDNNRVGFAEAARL
SMILES,IC50 [1] [µM],IC50 [2] [µM],IC50 (Cathepsin D (Cat D)) [µM]
"CC1(C)C(N)=N[C@](C)(c2cc(NC(=O)c3cnc(OCC(F)(F)F)cn3)ccc2F)CS1(=O)=O [Example 346, N-(3-((3R)-5-amino-3,6,6-trimethyl-1,1-dioxido-3,6-dihydro-2H-1,4-thiazin-3-yl)-4-fluorophenyl)-5-(2,2,2-trifluoroethoxy)-2-pyrazinecarboxamide]",0.00045,0.0014,> 400
"Cc1cc(Cl)cnc1C(=O)Nc1cnc(F)c([C@]2(C)CS(=O)(=O)C(C)(C)C(N)=N2)c1 [Example 347, N-(5-((3R)-5-amino-3,6,6-trimethyl-1,1-dioxido-3,6-dihydro-2H-1,4-thiazin-3-yl)-6-fluoro-3-pyridinyl)-5-chloro-3-methyl-2-pyridinecarboxamide]",0.0011,0.0018,71
"CC1(C)C(N)=N[C@](C)(c2cc(NC(=O)c3ncc(C(F)F)cc3Cl)cnc2F)CS1(=O)=O [Example 348, N-(5-((3R)-5-amino-3,6,6-trimethyl-1,1-dioxido-3,6-dihydro-2H-1,4-thiazin-3-yl)-6-fluoro-3-pyridinyl)-3-chloro-5-(difluoromethyl)-2-pyridinecarboxamide]",0.00589,0.00992,490
"CC#CCOc1cnc(C(=O)Nc2cnc(F)c([C@]3(C)CS(=O)(=O)C4(CCC4)C(N)=N3)c2)c(C)c1 [Example 349, N-(5-((7R)-9-amino-7-methyl-5,5-dioxido-5-thia-8-azaspiro[3.5]non-8-en-7-yl)-6-fluoro-3-pyridinyl)-5-(2-butyn-1-yloxy)-3-methyl-2-pyridinecarboxamide]",0.00078,0.0013,196
"Cc1cc(OCC(F)(F)F)cnc1C(=O)Nc1cnc(F)c([C@]2(C)CS(=O)(=O)C3(CCC3)C(N)=N2)c1 [Example 350, N-(5-((7R)-9-amino-7-methyl-5,5-dioxido-5-thia-8-azaspiro[3.5]non-8-en-7-yl)-6-fluoro-3-pyridinyl)-3-methyl-5-(2,2,2-trifluoroethoxy)-2-pyridinecarboxamide]",0.00606,0.0345,> 400
"COCc1cc(Cl)cnc1C(=O)Nc1ccc(F)c([C@]2(C)CS(=O)(=O)C(C)(C)C(N)=N2)c1 [Example 351, N-(3-((3R)-5-amino-3,6,6-trimethyl-1,1-dioxido-3,6-dihydro-2H-1,4-thiazin-3-yl)-4-fluorophenyl)-5-chloro-3-(methoxymethyl)-2-pyridinecarboxamide]",0.00052,0.0027,> 14.8
"CC1(C)C(N)=N[C@](C)(c2cc(NC(=O)c3ncc(Cl)cc3Br)ccc2F)CS1(=O)=O [Example 352, N-(3-((3R)-5-amino-3,6,6-trimethyl-1,1-dioxido-3,6-dihydro-2H-1,4-thiazin-3-yl)-4-fluorophenyl)-3-bromo-5-chloro-2-pyridinecarboxamide]",0.0008,0.0009,410
"Cc1cc(Cl)ccc1C(=O)Nc1ccc(F)c([C@]2(C)CS(=O)(=O)C(C)(C)C(N)=N2)c1 [Example 353, N-(3-((3R)-5-amino-3,6,6-trimethyl-1,1-dioxido-3,6-dihydro-2H-1,4-thiazin-3-yl)-4-fluorophenyl)-4-chloro-2-methylbenzamide]",0.00652,0.0166,708
"COc1ccc(C(=O)Nc2ccc(F)c([C@]3(C)CS(=O)(=O)C(C)(C)C(N)=N3)c2)c(F)c1 [Example 354, N-(3-((3R)-5-amino-3,6,6-trimethyl-1,1-dioxido-3,6-dihydro-2H-1,4-thiazin-3-yl)-4-fluorophenyl)-2-fluoro-4-methoxybenzamide]",0.0424,0.0187,1330
"Cc1cc(C#N)cnc1C(=O)Nc1ccc(F)c([C@]2(C)CS(=O)(=O)C(C)(C)C(N)=N2)c1 [Example 355, N-(3-((3R)-5-amino-3,6,6-trimethyl-1,1-dioxido-3,6-dihydro-2H-1,4-thiazin-3-yl)-4-fluorophenyl)-5-cyano-3-methyl-2-pyridinecarboxamide]",0.0003,0.0005,283
"CC1(C)C(N)=N[C@](C)(c2cc(NC(=O)c3ncc(C#N)cc3Cl)ccc2F)CS1(=O)=O [Example 356, N-(3-((3R)-5-amino-3,6,6-trimethyl-1,1-dioxido-3,6-dihydro-2H-1,4-thiazin-3-yl)-4-fluorophenyl)-3-chloro-5-cyano-2-pyridinecarboxamide]",0.00035,0.0012,710
"COc1cnc(C(=O)Nc2ccc(F)c([C@]3(C)CS(=O)(=O)C(C)(C)C(N)=N3)c2)c(C)c1 [Example 357, N-(3-((3R)-5-amino-3,6,6-trimethyl-1,1-dioxido-3,6-dihydro-2H-1,4-thiazin-3-yl)-4-fluorophenyl)-5-methoxy-3-methyl-2-pyridinecarboxamide]",0.00283,0.0025,228
"Cc1cc(OC(F)F)cnc1C(=O)Nc1cnc(F)c([C@]2(C)CS(=O)(=O)C3(CCC3)C(N)=N2)c1 [Example 358, N-(5-((7R)-9-amino-7-methyl-5,5-dioxido-5-thia-8-azaspiro[3.5]non-8-en-7-yl)-6-fluoro-3-pyridinyl)-5-(difluoromethoxy)-3-methyl-2-pyridinecarboxamide]",0.00642,0.0095,139
"Cc1cc(Cl)cnc1C(=O)Nc1cnc(F)c([C@]2(C)CS(=O)(=O)C3(CCC3)C(N)=N2)c1 [Example 359, N-(5-((7R)-9-amino-7-methyl-5,5-dioxido-5-thia-8-azaspiro[3.5]non-8-en-7-yl)-6-fluoro-3-pyridinyl)-5-chloro-3-methyl-2-pyridinecarboxamide]",0.0022,0.00521,105
"Cc1cnc(C(=O)Nc2ccc(F)c([C@]3(CF)CS(=O)(=O)C(C)(C)C(N)=N3)c2)c(C)c1 [Example 360, N-(3-((3S)-5-amino-3-(fluoromethyl)-6,6-dimethyl-1,1-dioxido-3,6-dihydro-2H-1,4-thiazin-3-yl)-4-fluorophenyl)-3,5-dimethyl-2-pyridinecarboxamide]",0.00299,0.0245,636
"CC1(C)C(N)=N[C@](CF)(c2cc(NC(=O)c3ccc(C(F)F)cn3)ccc2F)CS1(=O)=O [Example 361, N-(3-((3S)-5-amino-3-(fluoromethyl)-6,6-dimethyl-1,1-dioxido-3,6-dihydro-2H-1,4-thiazin-3-yl)-4-fluorophenyl)-5-(difluoromethyl)-2-pyridinecarboxamide]",0.0008,0.0193,437
"CC1(C)C(N)=N[C@](CF)(c2cc(NC(=O)c3ccc(OC(F)F)cn3)ccc2F)CS1(=O)=O [Example 362, N-(3-((3S)-5-amino-3-(fluoromethyl)-6,6-dimethyl-1,1-dioxido-3,6-dihydro-2H-1,4-thiazin-3-yl)-4-fluorophenyl)-5-(difluoromethoxy)-2-pyridinecarboxamide]",0.0003,0.0035,303
"CC1(C)C(N)=N[C@](CF)(c2cc(NC(=O)c3ccc(F)cn3)ccc2F)CS1(=O)=O [Example 363, N-(3-((3S)-5-amino-3-(fluoromethyl)-6,6-dimethyl-1,1-dioxido-3,6-dihydro-2H-1,4-thiazin-3-yl)-4-fluorophenyl)-5-fluoro-2-pyridinecarboxamide]",0.0017,0.0456,> 400
"CC1(C)C(N)=N[C@](CF)(c2cc(NC(=O)c3cnc(OCC(F)F)cn3)ccc2F)CS1(=O)=O [Example 364, N-(3-((3S)-5-amino-3-(fluoromethyl)-6,6-dimethyl-1,1-dioxido-3,6-dihydro-2H-1,4-thiazin-3-yl)-4-fluorophenyl)-5-(2,2-difluoroethoxy)-2-pyrazinecarboxamide]",0.0005,0.0214,858
"CC1(C)C(N)=N[C@](CF)(c2cc(NC(=O)c3cnc(OCCF)cn3)ccc2F)CS1(=O)=O [Example 365, N-(3-((3S)-5-amino-3-(fluoromethyl)-6,6-dimethyl-1,1-dioxido-3,6-dihydro-2H-1,4-thiazin-3-yl)-4-fluorophenyl)-5-(2-fluoroethoxy)-2-pyrazinecarboxamide]",0.00097,0.0447,> 400
"Cc1cc(Cl)cnc1C(=O)Nc1ccc(F)c([C@]2(CF)CS(=O)(=O)C3(CCC3)C(N)=N2)c1 [Example 366, N-(3-((7S)-9-amino-7-(fluoromethyl)-5,5-dioxido-5-thia-8-azaspiro[3.5]non-8-en-7-yl)-4-fluorophenyl)-5-chloro-3-methyl-2-pyridinecarboxamide]",0.00079,0.0141,241
"Cc1c(C(=O)Nc2ccc(F)c([C@]3(CF)CS(=O)(=O)C4(CCC4)C(N)=N3)c2)nc2ccc(Cl)cn12 [Example 367, N-(3-((7S)-9-amino-7-(fluoromethyl)-5,5-dioxido-5-thia-8-azaspiro[3.5]non-8-en-7-yl)-4-fluorophenyl)-6-chloro-3-methylimidazo[1,2-a]pyridine-2-carboxamide]",0.00507,0.0137,> 400
